The record followed here is US10316020B2, “Indane derivatives and the use thereof as soluble guanylate cyclase activators” (NOVARTIS AG, priority 2015, dated 2019).

A value given as a limit tells only on which side of the number the result lay.

The target of the assay is T1, soluble guanylate cyclase (GUCYA3/GUCYB3) overexpressed in CHO cells (Homo sapiens, UniProt Q02108+Q02153).
T1 construct: expressed in transfected cells
T1 sequence (Q02108 1-690 partner): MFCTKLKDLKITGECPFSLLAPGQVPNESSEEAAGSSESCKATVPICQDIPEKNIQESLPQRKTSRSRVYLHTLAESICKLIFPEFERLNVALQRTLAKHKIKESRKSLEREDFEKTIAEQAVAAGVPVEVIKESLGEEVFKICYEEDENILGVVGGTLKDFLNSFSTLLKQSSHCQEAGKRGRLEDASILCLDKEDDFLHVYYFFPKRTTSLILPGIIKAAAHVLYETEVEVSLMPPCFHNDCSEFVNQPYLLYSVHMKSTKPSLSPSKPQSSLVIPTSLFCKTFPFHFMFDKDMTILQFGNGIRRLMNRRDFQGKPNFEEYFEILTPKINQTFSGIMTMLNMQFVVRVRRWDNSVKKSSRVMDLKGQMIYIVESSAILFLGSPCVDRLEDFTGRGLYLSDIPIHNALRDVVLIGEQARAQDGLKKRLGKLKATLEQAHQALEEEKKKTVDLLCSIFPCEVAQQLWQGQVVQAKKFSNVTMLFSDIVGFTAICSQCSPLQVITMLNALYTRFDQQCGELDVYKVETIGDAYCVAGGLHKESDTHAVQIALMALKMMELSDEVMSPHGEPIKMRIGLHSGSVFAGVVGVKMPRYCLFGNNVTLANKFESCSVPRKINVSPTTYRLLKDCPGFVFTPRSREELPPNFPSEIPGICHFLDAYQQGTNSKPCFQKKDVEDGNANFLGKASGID
T1 sequence (Q02153 1-619): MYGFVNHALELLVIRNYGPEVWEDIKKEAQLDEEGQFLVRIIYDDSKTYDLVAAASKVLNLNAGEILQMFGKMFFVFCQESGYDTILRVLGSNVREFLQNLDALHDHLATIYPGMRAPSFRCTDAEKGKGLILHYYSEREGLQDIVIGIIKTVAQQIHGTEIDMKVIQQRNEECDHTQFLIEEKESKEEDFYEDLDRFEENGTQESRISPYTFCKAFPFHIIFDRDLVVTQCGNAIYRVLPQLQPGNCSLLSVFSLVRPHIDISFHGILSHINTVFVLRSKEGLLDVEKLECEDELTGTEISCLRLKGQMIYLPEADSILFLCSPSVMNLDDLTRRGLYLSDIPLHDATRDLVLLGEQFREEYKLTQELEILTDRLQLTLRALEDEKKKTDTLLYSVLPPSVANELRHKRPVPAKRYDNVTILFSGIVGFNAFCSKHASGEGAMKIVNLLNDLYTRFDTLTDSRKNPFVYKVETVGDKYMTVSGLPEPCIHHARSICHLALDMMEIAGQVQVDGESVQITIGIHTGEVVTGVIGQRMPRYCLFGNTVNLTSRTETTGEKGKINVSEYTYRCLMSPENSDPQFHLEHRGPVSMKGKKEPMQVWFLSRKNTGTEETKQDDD
The assay is described as follows: CHO cellular assay (cGMP production, HTRF). Type of assay: cell-based. To be noted: CHO GUCY clone 8E10; assay buffer with 1 mM IBMX, 20 uM ODQ; 1 h at room temperature; cGMP HTRF; quantification limit 0.0005 μM; read-out: Mean EC50. From the text:
Chinese hamster ovary (CHO) cells overexpressing soluble guanylate cyclase were generated to test the effect of sGC activators in a cellular context. Human cDNAs for GUCYA3 (RefSeq: NM_000856.3) and GUCYB3 (RefSeq: NM_000857.1) were amplified by PCR from a HUVEC (Human Umbilical Vein Endothelial Cells) cDNA library and cloned into mammalian expression vectors. CHO K1 cells (ATCC CCL-61) were transfected using Lipofectamine 2000 following manufacturer's instructions and stably expressing clones were identified by antibiotic selection. CHO GUCY clone 8E10 was used for subsequent experiments.
Cells were seeded at a density of 3000 cells/well in white 384-well proxyplates (Perkin Elmer) and incubated overnight, then the medium was removed and cells were washed with assay buffer (HBSS, 0.1% BSA, 1 mM IBMX, 20 uM ODQ). sGC activators were serially diluted in DMSO, then diluted in assay buffer prior to adding to cells (10 ul/well, final DMSO concentration 0.5%). Cells were incubated with compounds for 1 h at room temperature, then assayed for cGMP production using Cisbio cGMP HTRF kit (62GM2PEC) according to manufacturer's instructions.
The EC50s are calculated based on the amount of cGMP interpolated from the standard curve, using a 4-parameter sigmoidal dose-response.
Compounds of invention are active on sGC activation. Data in Table 1 collected using the assay of Biological Example 1.
(In general: Time-resolved FRET reads energy transfer from a long-lived donor to a nearby acceptor.)
Turning to `CCc1nc(NC2CCc3cccc(-c4cccc(-n5ncc(C(=O)O)c5OC)n4)c32)ccc1C1=CCN(C(=O)C2CC2)CC1` (single isomer, unassigned; (+)) [Example 16A, (+)-1-(6-(3-((1′-(Cyclopropanecarbonyl)-2-ethyl-1′,2′,3′,6′-tetrahydro-[3,4′-bipyridin]-6-yl)amino)-2,3-dihydro-1H-inden-4-yl)pyridin-2-yl)-5-methoxy-1H-pyrazole-4-carboxylic acid], the EC50 is less than 0.0005 µM.

Regarding `CCc1nc(NC2CCc3cccc(-c4cccc(-n5ncc(C(=O)O)c5NC)c4)c32)ccc1C1=CCN(C(=O)C2CC2)CC1` (single isomer, unassigned; (+)) [Example 22A, (+)-1-(3-(3-((1′-(Cyclopropanecarbonyl)-2-ethyl-1′,2′,3′,6′-tetrahydro-[3,4′-bipyridin]-6-yl)amino)-2,3-dihydro-1H-inden-4-yl)phenyl)-5-(methylamino)-1H-pyrazole-4-carboxylic acid], the EC50 is less than 0.0005 µM.

Regarding `CCc1cc(NC2CCc3cccc(-c4cccc(-n5ncc(C(=O)O)c5OC)c4)c32)ccc1C1CCN(C(=O)[C@H](C)O)CC1` (single isomer, unassigned; (-)) [Example 4B], the EC50 was 0.11 µM.

For the compound `CCc1cc(NC2CCc3cccc(-c4ccc(C)c(-n5ncc(C(=O)O)c5OC)c4)c32)ccc1C1CCN(C(=O)C2CC2)CC1` (single isomer, unassigned; (-)) [Example 7B, (−)-1-(5-(3-((4-(1-(Cyclopropanecarbonyl)piperidin-4-yl)-3-ethylphenyl)amino)-2,3-dihydro-1H-inden-4-yl)-2-methylphenyl)-5-methoxy-1H-pyrazole-4-carboxylic acid], the EC50 is 0.002 µM.

With `CCc1cc(NC2CCc3cccc(-c4ccc(OC)c(-n5ncc(C(=O)O)c5OC)c4)c32)ccc1C1CCN(C(=O)C2CC2)CC1` (single isomer, unassigned; (-)) [Example 8B, (−)-1-(5-(3-((4-(1-(Cyclopropanecarbonyl)piperidin-4-yl)-3-ethylphenyl)amino)-2,3-dihydro-1H-inden-4-yl)-2-methoxyphenyl)-5-methoxy-1H-pyrazole-4-carboxylic acid], the EC50 stood at 0.086 µM.

As to `CCc1cc(NC2CCc3cccc(-c4cccc(-n5ncc(C(=O)O)c5N)c4)c32)ccc1C1CCN(C(=O)C2CC2)CC1` (single isomer, unassigned; (-)) [Example 9B, (−)-5-Amino-1-(3-(3-((4-(1-(cyclopropanecarbonyl)piperidin-4-yl)-3-ethylphenyl)amino)-2,3-dihydro-1H-inden-4-yl)phenyl)-1H-pyrazole-4-carboxylic acid], the EC50 stood at 0.058 µM.

In the case of `CCc1nc(NC2CCc3cccc(-c4cccc(-n5ncc(C(=O)O)c5OC)c4)c32)ccc1C1=CCN(C(=O)C2CC2)CC1` (single isomer, unassigned; (-)) [Example 10B, (−)-1-(3-(3-((1′-(Cyclopropanecarbonyl)-2-ethyl-1′,2′,3′,6′-tetrahydro-[3,4′-bipyridin]-6-yl)amino)-2,3-dihydro-1H-inden-4-yl)phenyl)-5-methoxy-1H-pyrazole-4-carboxylic acid], the EC50 came out at 0.149 µM.

For the compound `CCc1nc(NC2CCc3cccc(-c4cccc(-n5ncc(C(=O)O)c5OC)n4)c32)ccc1C1=CCN(C(=O)C2CC2)CC1` (single isomer, unassigned; (-)) [Example 16B, (−)-1-(6-(3-((1′-(Cyclopropanecarbonyl)-2-ethyl-1′,2′,3′,6′-tetrahydro-[3,4′-bipyridin]-6-yl)amino)-2,3-dihydro-1H-inden-4-yl)pyridin-2-yl)-5-methoxy-1H-pyrazole-4-carboxylic acid], the EC50 was determined as 0.279 µM.

Regarding `CCc1cc(NC2CCc3cccc(-c4cccc(-n5ncc(C(=O)O)c5N)n4)c32)ccc1C1CCN(C(=O)C2CC2)CC1` (single isomer, unassigned; (-)) [Example 18B, (−)-5-Amino-1-(6-(3-((4-(1-(cyclopropanecarbonyl)piperidin-4-yl)-3-ethylphenyl)amino)-2,3-dihydro-1H-inden-4-yl)pyridin-2-yl)-1H-pyrazole-4-carboxylic acid], the EC50 was 0.031 µM.

With `CCc1nc(NC2CCc3cccc(-c4cccc(-n5ncc(C(=O)O)c5NC)c4)c32)ccc1C1=CCN(C(=O)C2CC2)CC1` (single isomer, unassigned; (-)) [Example 22B, (−)-1-(3-(3-((1′-(Cyclopropanecarbonyl)-2-ethyl-1′,2′,3′,6′-tetrahydro-[3,4′-bipyridin]-6-yl)amino)-2,3-dihydro-1H-inden-4-yl)phenyl)-5-(methylamino)-1H-pyrazole-4-carboxylic acid], the EC50 is 0.0404 µM.

For `CCc1cc(NC2CCc3cccc(-c4cccc(-n5ncc(C(=O)O)c5NC)c4)c32)ccc1C1CCN(C(=O)C2CC2)CC1` (single isomer, unassigned; enantiomer-1) [Example 12A, (enantiomer-1)-1-(3-(3-((4-(1-(Cyclopropanecarbonyl)piperidin-4-yl)-3-ethylphenyl)amino)-2,3-dihydro-1H-inden-4-yl)phenyl)-5-(methylamino)-1H-pyrazole-4-carboxylic acid], the concentration giving a half-maximal response (EC50) is 0.053 µM.

As for `CCc1cc(NC2CCc3cccc(-c4cccc(-n5ncc(C(=O)O)c5NC)c4)c32)ccc1C1CCN(C(=O)C2CC2)CC1` (single isomer, unassigned; enantiomer-2) [Example 12B, (enantiomer-2)-1-(3-(3-((4-(1-(Cyclopropanecarbonyl)piperidin-4-yl)-3-ethylphenyl)amino)-2,3-dihydro-1H-inden-4-yl)phenyl)-5-(methylamino)-1H-pyrazole-4-carboxylic acid], the EC50 was less than 0.0005 µM.

For `CCc1cc(C[C@@H]2CCc3cccc(-c4cccc(-n5ncc(C(=O)O)c5OC)c4)c32)ccc1C1CCN(C(=O)C2CC2)CC1` [Example 1B, (−)-(S)-1-(3-(3-(4-(1-(Cyclopropanecarbonyl)piperidin-4-yl)-3-ethylbenzyl)-2,3-dihydro-1H-inden-4-yl)phenyl)-5-methoxy-1H-pyrazole-4-carboxylic acid], the EC50 stood at 0.016 µM.

Turning to `CCc1cc(C[C@H]2CCc3cccc(-c4cccc(-n5ncc(C(=O)O)c5OC)c4)c32)ccc1C1CCN(C(=O)[C@H](C)O)CC1` [Example 2A, (+)-1-(3-((R)-3-(3-Ethyl-4-(1-((S)-2-hydroxypropanoyl)piperidin-4-yl)benzyl)-2,3-dihydro-1H-inden-4-yl)phenyl)-5-methoxy-1H-pyrazole-4-carboxylic acid], the EC50 was less than 0.0005 µM.

Regarding `CCc1cc(C[C@@H]2CCc3cccc(-c4cccc(-n5ncc(C(=O)O)c5OC)c4)c32)ccc1C1CCN(C(=O)[C@H](C)O)CC1` [Example 2B, (−)-1-(3-((S)-3-(3-Ethyl-4-(1-((S)-2-hydroxypropanoyl)piperidin-4-yl)benzyl)-2,3-dihydro-1H-inden-4-yl)phenyl)-5-methoxy-1H-pyrazole-4-carboxylic acid], the EC50 was 0.034 µM.

Regarding `CCc1cc(N[C@@H]2CCc3cccc(-c4cccc(-n5ncc(C(=O)O)c5OC)c4)c32)ccc1C1CCN(C(=O)C2CC2)CC1` [Example 3B, (−)-(R)-1-(3-(3-((4-(1-(Cyclopropanecarbonyl)piperidin-4-yl)-3-ethylphenyl)amino)-2,3-dihydro-1H-inden-4-yl)phenyl)-5-methoxy-1H-pyrazole-4-carboxylic acid], the EC50 was 0.029 µM.

One may read the EC50 as the concentration giving half of the maximal effect.
